Patent publication US20040087498A1, “Modified factor VII” (Novo Nordisk Health Care AG, priority 1991, published 2004)
“And” between values parts separate entries of the source, which are not always exact repeats. Equal entries are not always repeated.

Legend:
[1] = tested on: tissue factor preparation (saline extract of baboon brain); test: Clotting assay in normal baboon plasma with baboon brain tissue factor; type: biochemical
Method: The samples were mixed and briefly incubated at 37° C. The samples were added to an Electra 800 Automatic Coagulation Timer (Medical Laboratories Automation, Pleasantville, N.Y.). […] A tissue factor preparation was made as a saline extract of baboon brain from freshly frozen brain tissue and characterized for its ability to initiate coagulation in baboon plasma. A concentration of tissue factor that gave a clotting time of about 40 seconds was selected.

rabbit plasma = test: Prothrombin time in plasma of balloon angioplasty rabbits; type: in vivo; details: for Clotting Time (prothrombin time), individual animals: listed as DEGR-FVIIa
Method: (§1) The test drug delivery for the animals consisted of an initial bolus injection immediately prior to balloon angioplasty, followed by a continuous systemic infusion by osmotic pump via the internal jugular vein. The duration of the drug infusion was 3 days. The control animals received heparin, 150 U/kg IV bolus, prior to balloon angioplasty followed by saline infusion. The DEGR-FVIIa treated animals received a 1 mg/kg bolus injection followed by 50 μg/kg/hr infusion.
Prothrombin time and concentration of DEGR-FVIIa in the blood were determined at immediately pre-bolus injection of the test compound, 1 hr post bolus injection, and at 3 days at the end of continuous infusion. One to two mls of citrated plasma was obtained and the prothrombin times and antigen levels determined.
A standard clotting assay was used to monitor the prothrombin time in the control and DEGR-FVIIa-treated animals as follows. Twenty-five microliters of test rabbit plasma, collected with sodium citrate as anticoagulant, was added to 150 μl of TBS (20 mM Tris, pH 7.4, 150 mM NaCl). The samples were mixed and added to an Electra 800 Automated Coagulation Timer (Medical Laboratories Automation, Pleasantville, N.Y.). After incubation, 200 μl of thromboplastin preparation (Sigma Chemical) containing 25 mM CaCl2 was added to the plasma preparations. A concentration of thromboplastin that gave a clotting time of approximately 20 seconds in the control rabbit plasma was selected.

femoral artery lumen = test: Angiographic luminal diameter after balloon angioplasty in atherosclerotic rabbits; type: in vivo, rabbit
Method: as §1
For the placement of the osmotic pumps for continuous systemic infusion, anesthesia was induced in the animals as described above, and maintained throughout the procedure with additional IM injections of ketamine and Xylazine. Through a midline neck incision, the right internal jugular vein was isolated by blunt dissection and the distal end ligated. A silastic tube (PE-160) was introduced into the right internal jugular vein. A subcutanecus tunnel was created to pass the silastic tube. This tube was connected with the osmotic pump. The osmotic pump was implanted subcutaneously in the back of the rabbit. The right common carotid artery was isolated by blunt dissection and the distal end ligated. Via an arteriotomy, a 5F introducer was placed and advanced to the junction of the aortic arch. Blood was drawn for determination of hemostatic parameters, drugs and cholesterol levels. Twenty milligrams of xylocain was injected intraarterially. A control aortoilibfemoral angiogram was performed via a 5F Berman catheter positioned above the aortic bifurcation using 3-4 ml renographin injected over 3 seconds by hand.
Following balloon dilatation, the angioplasty catheter was withdrawn and the Berman catheter reintroduced to a position 3 cm above the aortic bifurcation. To minimize spasm 20 mg of lidocaine was given intraarterially. A post procedure angiogram was performed as described above. A 1 cm grid was positioned at the level of the femoral artery to calculate the actual diameter. The catheter was then removed. The right carotid artery was ligated with 3-0 silk and the wound sutured by layers. […]

[2] = tested on: vascular lesion formation; test: Balloon brachial artery model in baboons; type: in vivo; details: baboon brachial artery balloon model, preliminary studies
Method: Under halothane anesthesia and sterile operating conditions, animals labeled with autologous ^111In-platelets received intravenous infusions of DEGR-FVIIa using the tether system for continuous intravenous administration (initial bolus injection of 1 mg/kg followed by continuous intravenous infusion of 50 μg/kg/hr. The animals received surgical carotid endarterectomy, bilateral brachial artery or bilateral femoral artery Fogarty balloon catheter angioplasties.
The DEGR-FVIIa was administered for 7 or 30 days by continuous infusions via venous catheter using the tether system. […]
For morphometric analysis of VLF, sections embedded in paraffin and stained for connective tissue components (collagen, elastin) and with hematoxylin-eosin, were evaluated using a Zeiss Photoscope coupled with image analysis system (Thomas Optical Measurement Systems, Columbus, Ga.) consisting of high resolution (580 lines) CCD microscope camera coupled to a high resolution (700 lines) monitor, an IBM 386 chip, 80 MB computer with high resolution graphics digitablet for image acquisition and storage. Quantitative image analysis was performed using a morphometric software driver (Optimas, Bioscan, Inc., Edmonds, Wash.). Arterial cross-sections were analyzed with respect to the total area of neointimal proliferative lesion and corresponding area of arterial media. […]

[3] = tested on: fibrin deposition associated with endotoxemia; test: Fibrin deposition in kidneys and lungs in rabbits; type: in vivo, rabbit
gram-negative bacteremia = test: Survival of treated baboons; type: in vivo, baboon

DEGR-Factor VIIa: Recombinant human Factor VIIa with its active site derivatized by Dansyl-L-Glu-Gly-Arg-chloromethyl Ketone (DEGRck)
Clotting time ([1]; 0.5 μg/ml plasma): 46.2 s | Clotting time ([1]; 1.0 μg/ml plasma): 50.8 s | Clotting time ([1]; 2.5 μg/ml plasma): 64.5 s | Clotting time ([1]; 5.0 μg/ml plasma): 108.1 s | Clotting time ([1]; 10.0 μg/ml plasma): 158.4 s | Plasma clotting time, Mean (rabbit plasma; 1 Hr POST ANGIO): 40.8 | Plasma clotting time, Mean (rabbit plasma; 3 Days POST ANGIO): 21.06 | Clotting Time (prothrombin time), individual animals (rabbit plasma; 1 hour after 1 mg/kg bolus, 50 μg/kg/hr infusion): 40.1 s and 34 s and 50 s and 33.3 s and 45.8 s and 41.6 s | Clotting Time (prothrombin time), individual animals (rabbit plasma; 3 days, end of 50 μg/kg/hr infusion): 18.3 s and 20.9 s and 21.7 s and 21 s and 21.2 s and 21.9 s and 22.4 s | Plasma clotting time, Mean (rabbit plasma; PRE-BLEED): 23.2 | Clotting Time (prothrombin time), individual animals (rabbit plasma; Pretreatment (pre-bolus)): 22.5 s and 24.3 s and 24.7 s and 23.6 s and 20.6 s and 23.5 s | Mean MLD (femoral artery lumen; 21 Day Measurement): 1.393 | Mean MLD (femoral artery lumen; Post-PTCA Measurement): 1.323 | Mean MLD (femoral artery lumen; Pre-PTCA Measurement): 1.283 | benefit of therapy [2]: no measurable benefit | fibrin deposition in kidneys and lungs [3]: dose-response effect for blocking fibrin deposition in kidneys and lungs | survival (gram-negative bacteremia): prolong survival of treated animals
